Each structure is given as a SMILES string. Calls of active or inactive are those of the source. No stated cut-off is given here; in the data, active means IC50 below about 20 µM; inactive means the rest.

Usually IC50 stands for the midpoint of a concentration-inhibition curve.

For the test, the system named is Gli-responsive luciferase reporter cells, SUFU pathway antagonism. As to the kind of experiment: blockers of Gli reporter signaling – cell-based, luciferase luminescence, uHTS hits, dose response (AID 602464).

For the compound `Brc1ccc(-c2c[n+]3c(n2-c2ccccc2)SCC3)cc1`, the IC50 is 6.98 µM.
In the case of `CCCOc1ccccc1N/C(=N/c1nc(C)cc(C)n1)NC(=O)COc1ccc(OC)cc1`, the IC50 is 7.7 µM.
On to `O=S(=O)(NCc1ccncc1)c1ccc(S(=O)(=O)NCC2CCCO2)cc1` (stereo unspecified), for which the IC50 was 11.5 µM.
For `CC(C)n1c(-c2ccco2)csc1=Nc1cccnc1` the value was 8.01 µM; for `Cc1ccc(OCCN2CCN(c3ncnc4sc(C)c(C)c34)CC2)cc1`, 2.9 µM.
For `CCc1ccc(CN(C)C(=O)c2cc(COc3cccc4cnccc34)on2)cc1`, the IC50 was 5.85 µM.
Take `C/C(=N\Nc1ccc(Cl)nn1)c1ccccc1O`: the IC50 is > 20 µM (inactive).
For the compound `Cc1cc(/C=N/n2cnnc2)c(C)n1-c1ccc(OCc2ccccc2F)cc1`, the IC50 was 4.28 µM.
In the case of `CCc1cc(C(=O)NC2CCCN(Cc3ccccc3F)C2)n(C)n1` (stereo unspecified), the IC50 was 13.1 µM.
On to `Clc1ccc(-c2cn(-c3ccc(Cl)cc3)c3[n+]2CCCCC3)cc1`, for which the IC50 is 6.44 µM.
For `O=C(C[C@@H]1C/C=C\C[C@@H](NC(=O)OCC2c3ccccc3-c3ccccc32)C(=O)OC[C@@H](Cc2ccccc2)NC1=O)NCCO` the value was 10 µM; for `CC(=O)c1c(C)[nH]c(C(=O)OCC(=O)Nc2cccc(S(=O)(=O)N3CCCC3)c2)c1C`, 6.51 µM.
Consider `CC(C)C(=O)NC(=S)/C=C1/N(C)c2ccccc2C1(C)C`, for which the IC50 was 4.76 µM.
Next, `CCCCN(C(C)=O)c1ccc2c(c1)C1CC2CCN1C(=O)OCc1ccccc1` (stereo unspecified): 6.13 µM.
On to `CC(C)(C)[C@H]1COC(=O)[C@H](NC(=O)OCC2c3ccccc3-c3ccccc32)C/C=C\C[C@@H](CC(=O)N[C@@H](CO)Cc2ccccc2)C(=O)N1`, for which the IC50 was 11.9 µM.
Take `COc1ccccc1N1CCN(c2ncc(C(=O)N3CCN(c4cccc(Cl)c4)CC3)c3ccccc23)CC1`: the IC50 was 6.18 µM.
Next, `Cc1ncoc1C(=O)NC1CCCc2c1cnn2-c1ccc(C(C)(C)C)cc1` (stereo unspecified): 7.46 µM.
As to `c1ccc(-c2cn(-c3ccccc3)c3[n+]2CCS3)cc1`, the concentration for half-maximal inhibition (IC50) is 6.57 µM.
As to `C#CC[N+](C)(C)CCCCCCCCCCCC`, the IC50 is 2.51 µM.
On to `COc1cccc(CN(C)C(=O)c2cc(COc3ccc4ncccc4c3)on2)c1`, for which the 50% inhibitory concentration (IC50) is 5.39 µM.
Take `Cc1cc(C)nc(SCC(=O)Nc2ccc(N3CCOCC3)c(Cl)c2)n1`: the IC50 is 3.52 µM.
For the compound `O=[N+]([O-])c1ccc(N2CCN(C(=S)NCc3ccc(Cl)cc3)CC2)cc1`, the half-maximal inhibitory concentration (IC50) was 11.9 µM.
`CC(C)C[C@H]1CN=C(N(C)C)N1CCCCc1ccccc1`: the IC50 was 7.93 µM.
`Cc1ccc(C)c(-c2csc(NC(=O)C3=COCCO3)n2)c1`: the IC50 was 6.31 µM.
Regarding `O=C(COC(=O)c1ccc2[nH]c3c(c2c1)CCCC3)Nc1ccccc1Cl`, the IC50 is > 20 µM (inactive).
In the case of `FC(F)(F)c1ccc(N2CCN(c3cc(-c4ccccc4)nc4ncnn34)CC2)nc1`, the IC50 was 3.6 µM.
As to `Cc1cc(=O)[nH]c(SCC(=O)/C=C2\N(C)c3ccccc3C2(C)C)n1`, the IC50 is 5.13 µM.
Regarding `O=C(Cc1csc(Nc2nc(=S)[nH]c3ccccc23)n1)NCCCN1CCN(c2ccccc2F)CC1`, the IC50 was > 20 µM (inactive).
As for `Cc1ccc(C)c(N2CC(O)(c3cccs3)[N+]3=C2CCCC3)c1` (stereo unspecified), the IC50 was 10.4 µM.
Take `COc1ccc(C2=[N+](C)CCn3cccc32)c(OC)c1`: the half-maximal inhibitory concentration (IC50) was 10.2 µM.
In the case of `Clc1ccc(-c2c[n+](Cc3ccc(Cl)cc3Cl)c3n2CCCCC3)cc1`, the IC50 is 5.31 µM.
Regarding `Cc1ccc(Cl)cc1N1CCN(C(=O)CSc2nnc3n2C(C)(C)Cc2ccccc2-3)CC1`, the IC50 is 7.5 µM.
Consider `O=C(NC(c1cccnc1)C(F)(F)F)c1cc(COc2ccc3c(c2)CCCC3)on1` (stereo unspecified), for which the IC50 was 10.6 µM.
Turning to `CCOC(=O)C1CCCN(S(=O)(=O)c2ccc(S(=O)(=O)N(CC)CC)cc2)C1` (stereo unspecified), the IC50 was 3.29 µM.
For `Cc1c(C(C)C)c(=O)n(-c2ccc(S(=O)(=O)NCc3ccccc3)cc2)n1C`, the concentration for half-maximal inhibition (IC50) was 3.84 µM.
For `COc1ccc(NS(=O)(=O)c2ccc(N3CCCCC3)c(N)c2)cc1` the value was 5.14 µM.

These data come from PubChem BioAssay AID602464 (Sanford-Burnham Center for Chemical Genomics, 2012).
